Here are results for two molecules from patent publication US11459306B2, “Compounds, compositions, and methods for treating T-cell acute lymphoblastic leukemia” (The Trustees of Columbia University in the City of New York, priority 2017, dated 2022).

One series relates to T-ALL cell line. As to the kind of experiment: T-ALL cell viability / cell death. Format: cell-based, murine. Here is the method: Compounds DWL-PI3K-1, DWL-PI3K-2, DWL-PI3K-3, DWL-PI3K-4, DWL-PI3K-5, DWL-PI3K-6 and DWL-PI3K-7, and reference compounds CAL-130, tenalisib, duvelisib were evaluated for efficacy (cell viability by measuring ATP (CellTiter-Glo) or propidium iodide (PI) uptake) against a number of cancer cells, including LMO-2-007, OCI-LY-10, HH, H9, PF382 and CCRF-CEM.

Series [1] concerns T-ALL. Description: Mice with genetically induced T-ALL expressing luciferase treated with DWL-PI3K-3. To be noted: 10 mg/kg every 12 h for 7 days; luciferin signal and Ki67/thy1.2 positive population. Format: in vivo.
Series [2] can be described thus: Pharmacokinetics relative to CAL-130. Format: in vivo.
The next series deals with T1, PIK3CG (Homo sapiens, UniProt P48736).
T1 construct: purchased DiscoverX (KINOMEscan); host or cells: E. coli BL21-derived host (T7 phage) or HEK-293
As to the kind of experiment: KINOMEscan competition binding assay (DiscoverX). To be noted: DiscoveRx gene symbol PIK3CG (b251 prints: PI3Kδ). Here is the method:
(§1) The compounds were tested using KINOMEscan™ (DiscoverX), which is based on a competition binding assay that quantitatively measures the ability of a compound to compete with an immobilized, active-site directed ligand. The assay is performed by combining three components: DNA-tagged kinase; immobilized ligand; and a test compound. The ability of the test compound to compete with the immobilized ligand is measured via quantitative PCR of the DNA tag.
(§2) For most assays, kinase-tagged T7 phage strains were prepared in an E. coli host derived from the BL21 strain. E. coli were grown to log-phase and infected with T7 phage and incubated with shaking at 32° C. until lysis. The lysates were centrifuged and filtered to remove cell debris. The remaining kinases were produced in HEK-293 cells and subsequently tagged with DNA for qPCR detection. Streptavidin-coated magnetic beads were treated with biotinylated small molecule ligands for 30 minutes at room temperature to generate affinity resins for kinase assays. The liganded beads were blocked with excess biotin and washed with blocking buffer (SeaBlock (Pierce), 1% BSA, 0.05% Tween 20, 1 mM DTT) to remove unbound ligand and to reduce non-specific binding. Binding reactions were assembled by combining kinases, liganded affinity beads, and test compounds in 1× binding buffer (20% SeaBlock, 0.17×PBS, 0.05% Tween 20, 6 mM DTT). Test compounds were prepared as 111× stocks in 100% DMSO. Kds were determined using an 11-point 3-fold compound dilution series with three DMSO control points. All compounds for Kd measurements are distributed by acoustic transfer (non-contact dispensing) in 100% DMSO. The compounds were then diluted directly into the assays such that the final concentration of DMSO was 0.9%. All reactions performed in polypropylene 384-well plate. Each was a final volume of 0.02 ml. The assay plates were incubated at room temperature with shaking for 1 hour and the affinity beads were washed with wash buffer (1×PBS, 0.05% Tween 20). The beads were then re-suspended in elution buffer (1×PBS, 0.05% Tween 20, 0.5 μM non-biotinylated affinity ligand) and incubated at room temperature with shaking for 30 minutes. The kinase concentration in the eluates was measured by qPCR.
(§3) An 11-point 3-fold serial dilution of each test compound was prepared in 100% DMSO at 100× final test concentration and subsequently diluted to 1× in the assay (final DMSO concentration=1%). Most Kds were determined using a compound top concentration=30,000 nM. If the initial Kd determined was <0.5 nM (the lowest concentration tested), the measurement was repeated with a serial dilution starting at a lower top concentration.
(§4) Binding constants (Kds) were calculated with a standard dose-response curve using the Hill equation: […]
(§5) The Hill Slope was set to −1. Curves were fitted using a non-linear least square fit with the Levenberg-Marquardt algorithm.

The next series has as its target T2, PIK3CD (Homo sapiens, UniProt O00329).
T2 construct: purchased DiscoverX (KINOMEscan); host or cells: E. coli BL21-derived host (T7 phage) or HEK-293
T2 sequence (O00329 1-1044): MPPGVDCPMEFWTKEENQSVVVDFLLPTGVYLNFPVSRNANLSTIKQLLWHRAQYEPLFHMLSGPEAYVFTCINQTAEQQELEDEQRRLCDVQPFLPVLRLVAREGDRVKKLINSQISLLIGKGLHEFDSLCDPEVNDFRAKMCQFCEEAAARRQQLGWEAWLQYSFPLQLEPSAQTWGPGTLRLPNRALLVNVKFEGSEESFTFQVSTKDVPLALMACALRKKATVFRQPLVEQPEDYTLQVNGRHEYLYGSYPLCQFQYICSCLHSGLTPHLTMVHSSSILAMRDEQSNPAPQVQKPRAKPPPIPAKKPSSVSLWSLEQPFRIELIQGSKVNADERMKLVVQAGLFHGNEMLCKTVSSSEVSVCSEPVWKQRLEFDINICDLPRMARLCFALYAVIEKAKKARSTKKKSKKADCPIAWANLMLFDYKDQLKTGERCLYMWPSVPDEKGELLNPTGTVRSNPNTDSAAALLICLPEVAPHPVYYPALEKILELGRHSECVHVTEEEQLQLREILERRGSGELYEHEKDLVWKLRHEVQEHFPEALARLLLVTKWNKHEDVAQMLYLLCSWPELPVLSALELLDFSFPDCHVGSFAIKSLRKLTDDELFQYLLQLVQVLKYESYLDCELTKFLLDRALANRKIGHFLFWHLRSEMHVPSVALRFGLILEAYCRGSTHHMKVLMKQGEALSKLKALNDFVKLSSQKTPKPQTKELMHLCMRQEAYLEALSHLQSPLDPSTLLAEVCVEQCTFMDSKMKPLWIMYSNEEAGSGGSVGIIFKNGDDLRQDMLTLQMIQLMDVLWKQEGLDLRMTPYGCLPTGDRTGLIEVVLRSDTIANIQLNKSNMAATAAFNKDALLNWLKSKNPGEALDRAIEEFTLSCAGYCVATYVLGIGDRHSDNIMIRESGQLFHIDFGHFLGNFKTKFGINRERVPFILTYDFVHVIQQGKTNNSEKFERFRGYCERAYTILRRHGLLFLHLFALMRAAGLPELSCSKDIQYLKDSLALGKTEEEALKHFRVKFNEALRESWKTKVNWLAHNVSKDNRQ
As to the kind of experiment: KINOMEscan competition binding assay (DiscoverX). To be noted: DiscoveRx gene symbol PIK3CD (b251 prints: PI3Kγ). Here is the method:
as §1, §2, §3, §4, §5

The target of a further series is T3, PIK3CA (PI3Kα) (Homo sapiens, UniProt P42336).
T3 construct: purchased DiscoverX (KINOMEscan); host or cells: E. coli BL21-derived host (T7 phage) or HEK-293
Description: KINOMEscan competition binding assay (DiscoverX). To be noted: DiscoveRx gene symbol PIK3CA (PI3Kα). The procedure: as §1, §2, §3, §4, §5

A further series addresses T4, PIK3CB (PI3Kβ) (Homo sapiens, UniProt P42338).
T4 construct: purchased DiscoverX (KINOMEscan); host or cells: E. coli BL21-derived host (T7 phage) or HEK-293
As to the kind of experiment: KINOMEscan competition binding assay (DiscoverX). To be noted: DiscoveRx gene symbol PIK3CB (PI3Kβ). The procedure: as §1, §2, §3, §4, §5

Series [3] concerns mouse PTEN null/NOTCH activated T-ALL cell line. As to the kind of experiment: Gene set enrichment analysis of murine T-ALL disease signature after drug treatment. The format is cell-based. As to conditions: GSEA of T-ALL disease signature; 2.5 μM, 12 hours. Here is the method: This was also accomplished by generating gene expression signatures to assess the effects of drug treatment. Global gene expression profiles were obtained in triplicate using a mouse PTEN null/NOTCH activated T-ALL cell line driven by over expression of the transcription factor LMO2. […] Tumor cells were cultured in the presence of CAL-130 (2.5 μM) or the gamma-secretase inhibitor (GSI) Compound E (1 μM). Compound E blocks the activity of NOTCH1, which is also believed to support T-ALL tumor formation, proliferation, and survival. Drug treated cells were harvested at time points known to affect the expression of the proto-oncogene cMyc (12 hours and 48 hours, respectively), a master regulator of cell growth, metabolism and survival. A Venn diagram was created to illustrate the overlap in genes altered by either PI3Kγ/δ blockade (red circle) or GSI (green circle) using a false discovery rate (FDR) of 0.0005 as cut off (FIG. 1A). Of note, ten-fold more genes were affected following PI3Kγ/δ blockade, including the majority (˜62%) of genes altered by GSI monotherapy, a highly significant finding (Fisher's exact test, P<2.2×10^−16).
A murine T-ALL disease signature was further defined by ranking all genes based on their differential expression in T-ALL samples compared to wild type murine thymocytes. […]

The test system of series [4] is T-ALL. Description: Tumor burden and survival of mice with T-ALL. Format: in vivo.
Series [5] deals with human primary T-ALL cells. Description: Akt phosphorylation and pro-apoptotic pathways in human primary T-ALL cells. The format is cell-based.

T1 sequence (P48736 whole entry): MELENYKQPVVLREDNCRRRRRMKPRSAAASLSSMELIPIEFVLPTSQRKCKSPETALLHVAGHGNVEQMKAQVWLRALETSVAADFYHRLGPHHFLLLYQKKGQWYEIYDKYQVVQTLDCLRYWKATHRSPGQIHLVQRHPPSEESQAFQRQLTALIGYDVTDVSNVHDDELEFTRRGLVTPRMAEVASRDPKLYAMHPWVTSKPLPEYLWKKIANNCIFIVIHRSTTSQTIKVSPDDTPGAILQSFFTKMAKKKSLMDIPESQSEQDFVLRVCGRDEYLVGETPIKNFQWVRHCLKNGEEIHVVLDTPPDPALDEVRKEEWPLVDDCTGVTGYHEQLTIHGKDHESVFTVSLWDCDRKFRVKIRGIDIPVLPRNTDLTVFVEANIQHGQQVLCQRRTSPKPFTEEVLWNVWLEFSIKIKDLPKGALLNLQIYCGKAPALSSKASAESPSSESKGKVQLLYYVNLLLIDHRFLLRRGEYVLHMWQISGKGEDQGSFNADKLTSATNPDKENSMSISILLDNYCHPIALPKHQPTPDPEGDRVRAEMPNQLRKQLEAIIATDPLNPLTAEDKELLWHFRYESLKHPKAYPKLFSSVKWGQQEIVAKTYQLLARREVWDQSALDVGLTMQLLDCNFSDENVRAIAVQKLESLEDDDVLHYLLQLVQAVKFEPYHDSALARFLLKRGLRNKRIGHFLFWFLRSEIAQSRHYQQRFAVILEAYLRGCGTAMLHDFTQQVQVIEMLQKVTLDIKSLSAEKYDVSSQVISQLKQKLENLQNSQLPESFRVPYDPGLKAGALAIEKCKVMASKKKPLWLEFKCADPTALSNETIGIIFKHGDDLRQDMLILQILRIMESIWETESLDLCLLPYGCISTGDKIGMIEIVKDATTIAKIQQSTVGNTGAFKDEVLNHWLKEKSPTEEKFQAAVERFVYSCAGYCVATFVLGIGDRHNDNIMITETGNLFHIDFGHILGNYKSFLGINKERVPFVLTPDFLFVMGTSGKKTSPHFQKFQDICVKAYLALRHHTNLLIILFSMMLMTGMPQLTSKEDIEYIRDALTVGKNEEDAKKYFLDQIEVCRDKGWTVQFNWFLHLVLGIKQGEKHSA
T4 sequence (P42338 whole entry): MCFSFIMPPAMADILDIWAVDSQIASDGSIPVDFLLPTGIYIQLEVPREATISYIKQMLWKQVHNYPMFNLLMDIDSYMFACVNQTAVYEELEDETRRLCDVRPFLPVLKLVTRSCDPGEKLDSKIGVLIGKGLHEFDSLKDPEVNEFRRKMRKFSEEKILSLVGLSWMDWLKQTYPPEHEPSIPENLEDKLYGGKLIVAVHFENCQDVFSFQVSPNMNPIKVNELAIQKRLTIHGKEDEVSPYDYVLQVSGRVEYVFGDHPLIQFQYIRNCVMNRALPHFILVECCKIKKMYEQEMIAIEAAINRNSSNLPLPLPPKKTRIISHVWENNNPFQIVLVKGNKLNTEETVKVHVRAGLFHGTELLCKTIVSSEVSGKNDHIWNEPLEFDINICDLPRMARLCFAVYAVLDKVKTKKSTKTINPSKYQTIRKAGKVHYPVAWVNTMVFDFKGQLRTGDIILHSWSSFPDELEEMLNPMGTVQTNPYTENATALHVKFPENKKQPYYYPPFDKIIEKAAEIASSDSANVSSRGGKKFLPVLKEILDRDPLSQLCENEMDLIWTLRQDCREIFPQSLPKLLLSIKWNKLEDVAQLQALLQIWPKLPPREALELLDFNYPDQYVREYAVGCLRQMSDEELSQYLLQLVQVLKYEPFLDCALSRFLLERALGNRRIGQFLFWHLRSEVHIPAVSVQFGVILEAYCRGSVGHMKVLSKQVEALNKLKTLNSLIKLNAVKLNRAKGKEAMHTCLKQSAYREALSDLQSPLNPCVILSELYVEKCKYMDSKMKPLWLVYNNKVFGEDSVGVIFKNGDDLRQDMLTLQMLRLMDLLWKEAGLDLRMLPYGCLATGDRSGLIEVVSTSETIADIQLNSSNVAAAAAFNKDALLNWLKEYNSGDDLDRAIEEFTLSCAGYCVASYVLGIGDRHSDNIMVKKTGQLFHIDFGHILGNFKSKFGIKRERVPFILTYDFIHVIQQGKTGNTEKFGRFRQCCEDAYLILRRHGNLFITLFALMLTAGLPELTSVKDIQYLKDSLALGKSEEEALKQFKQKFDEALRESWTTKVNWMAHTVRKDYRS
T3 sequence (P42336 whole entry): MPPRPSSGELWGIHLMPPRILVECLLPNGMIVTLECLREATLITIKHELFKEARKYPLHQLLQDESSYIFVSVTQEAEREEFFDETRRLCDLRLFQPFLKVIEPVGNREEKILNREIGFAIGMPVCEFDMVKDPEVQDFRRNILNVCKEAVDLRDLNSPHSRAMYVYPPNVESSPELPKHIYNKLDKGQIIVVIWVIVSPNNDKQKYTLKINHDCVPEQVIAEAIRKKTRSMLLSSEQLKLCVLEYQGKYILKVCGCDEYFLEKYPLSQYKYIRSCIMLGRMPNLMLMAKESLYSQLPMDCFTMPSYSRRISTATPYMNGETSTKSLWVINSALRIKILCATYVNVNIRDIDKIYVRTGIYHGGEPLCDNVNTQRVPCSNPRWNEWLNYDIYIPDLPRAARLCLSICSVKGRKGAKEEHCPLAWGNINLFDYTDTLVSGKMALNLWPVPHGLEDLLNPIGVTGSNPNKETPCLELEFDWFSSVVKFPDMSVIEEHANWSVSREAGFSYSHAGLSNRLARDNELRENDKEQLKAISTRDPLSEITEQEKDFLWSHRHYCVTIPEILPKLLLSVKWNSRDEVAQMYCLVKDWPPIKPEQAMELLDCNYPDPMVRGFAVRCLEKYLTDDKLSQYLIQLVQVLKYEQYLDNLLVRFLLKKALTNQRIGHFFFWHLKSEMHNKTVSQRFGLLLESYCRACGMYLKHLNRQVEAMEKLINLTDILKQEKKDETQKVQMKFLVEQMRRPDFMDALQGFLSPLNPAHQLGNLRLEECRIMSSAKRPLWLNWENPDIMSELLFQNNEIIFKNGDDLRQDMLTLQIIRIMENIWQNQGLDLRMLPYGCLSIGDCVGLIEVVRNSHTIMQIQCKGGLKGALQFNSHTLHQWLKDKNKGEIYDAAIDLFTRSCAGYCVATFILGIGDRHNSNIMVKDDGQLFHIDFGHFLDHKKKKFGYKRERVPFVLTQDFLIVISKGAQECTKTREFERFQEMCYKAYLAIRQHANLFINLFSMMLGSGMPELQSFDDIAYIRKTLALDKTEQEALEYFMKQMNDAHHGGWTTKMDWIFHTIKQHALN

As usually defined, the Kd is a measure of binding affinity in units of concentration. A higher Kd goes with weaker binding. Take `C[C@H](Nc1nc(N)nc(N)c1C#N)c1cc2cccc(Cl)c2c(=O)n1-c1ccccc1` [DWL-PI3K-3, (S)-2,4-diamino-6-((1-(8-chloro-1-oxo-2-phenyl-1,2-dihydroisoquinolin-3-yl)ethyl)amino)pyrimidine-5-carbonitrile]: the “efficacy in inducing T-ALL cell death relative to CAL-130” value in the series with T-ALL cell line (cultured T-ALL cells) was “greater efficacy than CAL-130”. In addition, the “amount needed relative to CAL-130 to achieve a similar reduction in tumor cell survival” value in the series with T-ALL cell line (relative to CAL-130) is recorded as “about 10 fold less”. Further, the tumor burden entry with T-ALL [1] was “significant reduction in tumor burden”. In addition, the pharmacokinetics result in [2] is reported as “better pharmacokinetics”. In addition, the Kd worked out at 0.12 nM at PIK3CG, 0.14 nM at PIK3CD, 4 nM on PIK3CA (PI3Kα) and 0.084 nM on PIK3CB (PI3Kβ).

In the case of `Cc1ccccc1-n1c([C@H](C)Nc2nc(N)nc3[nH]cnc23)nc2cccc(C)c2c1=O` [CAL-130], the “normalized enrichment score (NES)” value in series [3] was −5.8. For the same molecule, the “effect on tumor burden and survival” value with T-ALL [4] is “significantly reduced tumor burden and prolonged survival of diseased mice”. Further, the mean survival in the series on T-ALL [4] (10 mg/kg tid) came out at 45 days. In addition, the “Akt phosphorylation and pro-apoptotic pathways” value in [5] was “abolished Akt phosphorylation and activated pro-apoptotic pathways”.
